Measured values from US7985771B2, “Furanone derivatives” (Monsanto Technology LLC, priority 2002, dated 2011).

Columns and labels:
[1] = system: IL-1beta release from a mouse microglial cell line; assay: Interleukin-1 beta microglial cell assay; assay type: cell-based; settings: LPS and IFN gamma stimulation, 24 hours, read-out: inhibition of IL-1beta induction, EC50
Method: This assay measures the release of IL-1β from a mouse microglial cell line following an inflammatory challenge with LPS and interferon-gamma. The ability of test articles to inhibit microglial cell activation and IL-1beta release is determined by co-incubation of the test article with the inflammatory challenge. Cytokine release is measured using a mouse IL-1β ELISA and cell toxicity is determined using Cell Tracker Green (a fluorescent dye that measures cell viability).
Mouse microglial cells were seeded in poly-D-lysine coated 96-well plates at a density of 10,000 cells/well and allowed to attach for 24 hours. Cells were stimulated by addition of LPS (10 μg/ml) and IFN gamma (10 ng/ml) in the presence or absence of test article. The cells were then incubated for 24 hours at 37° C., after which time the media was removed and used for cytokine determination as described below.
Viability of mouse microglial cells after exposure to the test article was determined using a fluorescent viability dye, Cell Tracker Green. Cell Tracker Green was used at a working concentration of 5 μM in 1× HBSS. Cells were washed once with HBSS (200 μl/well) and 100 μl Cell Tracker Green was added to each well. Cells were then incubated at 37° C. for 30 minutes, after which time the Cell Tracker was removed and the cells were washed once with HBSS (200 μl/well). 100 μl fresh HBSS was added to each well and the plate was read on a Fluoroskan plate reader using an excitation wavelength of 485 nm and an emission wavelength of 538 nm.
1. The IL-1β capture antibody was reconstituted in 1 ml of PBS to give a final concentration of 720 μg/ml, and the working concentration was 4 μg/ml. For coating one 96-well plate (at 100 μl/well) 56 μl of the 720 μg/ml stock was diluted into 10 ml of PBS. 2. The IL-1β standards were reconstituted in 0.5 ml of Reagent Diluent (70 ng/ml). For a high standard of 1 ng/ml (2 wells at 100 μl each+enough for series dilution) 7.1 μl of the 70 ng/ml standard were diluted into 0.5 ml of Reagent Diluent 3. The IL-1β detection antibody was reconstituted in 1 ml of Reagent Diluent to give a final concentration of 18 μg/ml and the working concentration is 100 ng/ml. For one 96-well plate (at 100 μl/well) 56 μl of the 18 μg/ml stock was diluted into 10 ml of Reagent Diluent.
1. The Costar EIA Hi-binding plate was coated with capture antibody at 4 μg/ml. Each well was coated with 100 μl, and the plate was sealed and incubated overnight at room temperature.
2. Each well was aspirated and washed 3× with Wash Buffer. Each well was filled to the top, dispensed, and any remaining buffer was removed by inverting the plate and gently blotting against clean paper towels.
3. Non-specific binding sites were blocked by adding 300 μl of Blocking Buffer to each well, and after sealing incubating for at least 1 hour at room temperature.
5. 100 μl of either standard or sample were added in each well of the capture-coated and pre-blocked plate. The plate was sealed and incubated for 2 hours at room temperature, followed with washing as in step 2.
6. 100 μl of the detection antibody ([…]) were added to each well.
7. The plate was sealed and incubated at room temperature for 2 hours, followed with washing as in step 2.
8. 100 μl of the working dilution of Streptavidin-HRP was added, and the plate was sealed and incubated in the dark for 20 minutes at room temperature, followed with washing as in Step 2.
9. The fresh Substrate Solution was prepared by mixing Color Reagent A (H2O2) and Color Reagent B (Tetramethylbenzidine) in a 1:1 ratio. 100 μl of this Substrate Solution mixture was added to each well and the plate was incubated in the dark for 20 minutes at room temperature. 10. 50 μl of Stop Solution was added to each well, mixing was ensured by gently tapping. 11. Each plate was read with the Spectramax once at 450 nm. Results

[2] = system: ELAM (E-selectin) expression in endothelial cells; assay: E-selectin (ELAM) cell inflammation assay; assay type: cell-based; settings: LPS and IL-1β stimulation, read-out: reduction of expression of ELAM, EC50
Method: Endothelial-Leukocyte Adhesion Molecule (ELAM), also known as E-selectin, is expressed on the surface of endothelial cells. In this assay, lipopolysaccharide (LPS) and IL-1β are used to stimulate the expression of ELAM; test agents are tested for their abilities to reduce this expression, in accordance with studies showing that reduction of leukocyte adhesion to endothelial cell surface is associated with decreased cellular damage (e.g., Takada, M., Et al., Transplantation 64: 1520-25, 1997; Steinberg, J. B., et al., J. Heart Lung Trans. 13:306-313, 1994).
Endothelial cells may be selected from any of a number of sources and cultured according to methods known in the art; including, for example, coronary artery endothelial cells, human brain microvascular endothelial cells (HBMEC; Hess, D.C., et al., Neurosci. Left. 213(1): 37-40, 1996), or lung endothelial cells. Cells are conveniently cultured in 96-well plates. Cells are stimulated by adding a solution to each well containing 10 μg/ml LPS and 100 pg/ml IL-1β for 6 hours in the presence of test agent (specific concentrations and time may be adjusted depending on the cell type). Treatment buffer is removed and replaced with pre-warmed Fixing Solution® (100 μl/well) for 25 minutes at room temperature. Cells are then washed 3×, then incubated with Blocking Buffer (PBS+2% FBS) for 25 minutes at room temperature. Blocking Buffer containing Monoclonal E-Selectin Antibody (1:750, Sigma Catalog #S-9555) is added to each well. Plates are sealed and stored at 4° overnight. Plates are washed 4× with 160 μL Blocking Buffer per well. Second Antibody-HRP diluted 1:5000 in Blocking Buffer is then added (100 μL/well), and plates are incubated at room temperature (protected from light) for two hours. Plates are then washed 4× with Blocking Buffer before addition of 100 μL of ABTS Substrate solution at room temperature (Zymed, Catalog #00-2024). Wells are allowed to develop for 35 minutes, before measurement at 402 nm in a Fluoroskan® Reader with shake program for 10 seconds. Positive results are recorded as a decrease in ELAM concentration in tested wells, as compared to control wells.

Compound	EC50 [1]	EC50 [2]
CCOC(=O)C1(CSc2nc3ccccc3[nH]2)OC(=O)C(OCC)=C1Sc1nc2ccccc2n1CC (stereo not drawn) [2-(1H-Benzoimidazol-2-ylsulfanylmethyl)-4-ethoxy-3-(1-ethyl-1H-benzoimidazol-2-ylsulfanyl)-5-oxo-2,5-dihydro-furan-2-carboxylic acid ethyl ester]	≤ 20 µM	≤ 30 µM
CCOC(=O)C1(C[S+]([O-])c2nc3ccccc3s2)OC(=O)C(O)=C1Sc1nc2ccccc2s1 (stereo not drawn) [2-(Benzothiazole-2-sulfinylmethyl)-3-(benzothiazol-2-ylsulfanyl)-4-hydroxy-5-oxo-2,5-dihydro-furan-2-carboxylic acid ethyl ester]	≤ 20 µM	≤ 30 µM
CCOC(=O)C1(CSCc2ccc(Cl)cc2Cl)OC(=O)C(O)=C1SCc1ccc(Cl)cc1Cl (stereo not drawn) [3-(2,4-Dichloro-benzylsulfanyl)-2-(2,4-dichloro-benzylsulfanylmethyl)-4-hydroxy-5-oxo-2,5-dihydro-furan-2-carboxylic acid ethyl ester]	≤ 20 µM	≤ 30 µM
CCOC(=O)C1(CSc2ccc(F)cc2Cl)OC(=O)C(O)=C1Sc1ccc(F)cc1Cl (stereo not drawn) [3-(2-Chloro-4-fluoro-phenylsulfanyl)-2-(2-chloro-4-fluoro-phenylsulfanylmethyl)-4-hydroxy-5-oxo-2,5-dihydro-furan-2-carboxylic acid ethyl ester]	≤ 20 µM	≤ 30 µM
CCOC(=O)C1(CSCc2c(F)cccc2Cl)OC(=O)C(O)=C1SCc1c(F)cccc1Cl (stereo not drawn) [3-(2-Chloro-6-fluoro-benzylsulfanyl)-2-(2-chloro-6-fluoro-benzylsulfanylmethyl)-4-hydroxy-5-oxo-2,5-dihydro-furan-2-carboxylic acid ethyl ester]	≤ 20 µM	≤ 30 µM
CCOC(=O)C1(C(=O)OCC)OC(=O)C(O)=C1SCc1ccc(F)cc1 [3-(4-Fluoro-benzylsulfanyl)-4-hydroxy-5-oxo-5H-furan-2,2-dicarboxylic acid diethyl ester]	≤ 20 µM	≤ 30 µM
COC(=O)C1(CSc2nc3ccccc3s2)OC(=O)C(O)=C1Sc1nc2ccccc2o1 (stereo not drawn) [3-(Benzooxazol-2-ylsulfanyl)-2-(benzothiazol-2-ylsulfanylmethyl)-4-hydroxy-5-oxo-2,5-dihydro-furan-2-carboxylic acid methyl ester]	≤ 20 µM	–
CCOC(=O)C1(CSc2nc3ccccc3[se]2)OC(=O)C(O)=C1Sc1nc2ccccc2[se]1 (stereo not drawn) [3-(Benzoselenazol-2-ylsulfanyl)-2-(benzoselenazol-2-ylsulfanylmethyl)-4-hydroxy-5-oxo-2,5-dihydro-furan-2-carboxylic acid ethyl ester]	≤ 20 µM	≤ 30 µM
CCOC(=O)C1(CSc2nc3ccccc3s2)OC(=O)C(O)=C1Sc1nc2ccccc2s1 (stereo not drawn) [3-(Benzothiazol-2-ylsulfanyl)-2-(benzothiazol-2-ylsulfanylmethyl)-4-hydroxy-5-oxo-2,5-dihydro-furan-2-carboxylic acid ethyl ester]	≤ 20 µM	≤ 30 µM
CC(C)OC(=O)C1(CSc2nc3ccccc3s2)OC(=O)C(O)=C1Sc1nc2ccccc2s1 (stereo not drawn) [3-(Benzothiazol-2-ylsulfanyl)-2-(benzothiazol-2-ylsulfanylmethyl)-4-hydroxy-5-oxo-2,5-dihydro-furan-2-carboxylic acid isopropyl ester]	≤ 20 µM	≤ 30 µM
CCOC(=O)C1(C[S+]([O-])Cc2ccco2)OC(=O)C(O)=C1[S+]([O-])Cc1ccco1 (stereo not drawn) [3-(Furan-2-ylmethanesulfinyl)-2-(furan-2-ylmethanesulfinylmethyl)-4-hydroxy-5-oxo-2,5-dihydro-furan-2-carboxylic acid ethyl ester]	≤ 20 µM	≤ 30 µM
CCOC(=O)C1(CSCc2ccco2)OC(=O)C(O)=C1SCc1ccco1 (stereo not drawn) [3-(Furan-2-ylmethylsulfanyl)-2-(furan-2-ylmethylsulfanylmethyl)-4-hydroxy-5-oxo-2,5-dihydro-furan-2-carboxylic acid ethyl ester]	≤ 20 µM	–
CCOC(=O)C1(CSCc2ccco2)OC(=O)C(OC(=O)C(C)C)=C1SCc1ccco1 (stereo not drawn) [3-(Furan-2-ylmethylsulfanyl)-2-(furan-2-ylmethylsulfanylmethyl)-4-isobutyryloxy-5-oxo-2,5-dihydro-furan-2-carboxylic acid ethyl ester]	≤ 20 µM	≤ 30 µM
CCCCSCC1(C(=O)OCC)OC(=O)C(O)=C1SCCCC (stereo not drawn) [3-Butylsulfanyl-2-butylsulfanylmethyl-4-hydroxy-5-oxo-2,5-dihydro-furan-2-carboxylic acid ethyl ester]	≤ 20 µM	–
CCOC(=O)C1(CSCc2ccco2)OC(=O)C(OC(=O)C(C)(C)C)=C1SCc1ccco1 (stereo not drawn) [4-(2,2-Dimethyl-propionyloxy)-3-(furan-2-ylmethylsulfanyl)-2-(furan-2-ylmethylsulfanylmethyl)-5-oxo-2,5-dihydro-furan-2-carboxylic acid ethyl ester]	≤ 20 µM	–
O=C1OC(CO)(CSc2nc3ccccc3o2)C(Sc2nc3ccccc3o2)=C1O (stereo not drawn) [4-(Benzooxazol-2-ylsulfanyl)-5-(benzooxazol-2-ylsulfanylmethyl)-3-hydroxy-5-hydroxymethyl-5H-furan-2-one]	≤ 20 µM	–
CCOC(=O)C1(CSCc2ccc(OC)cc2)OC(=O)C(O)=C1SCc1ccc(OC)cc1 (stereo not drawn) [4-Hydroxy-3-(4-methoxy-benzylsulfanyl)-2-(4-methoxy-benzylsulfanylmethyl)-5-oxo-2,5-dihydro-furan-2-carboxylic acid ethyl ester]	≤ 20 µM	–
CCOC(=O)C1(CSc2nccc(C)n2)OC(=O)C(O)=C1Sc1nccc(C)n1 (stereo not drawn) [4-Hydroxy-3-(4-methyl-pyrimidin-2-ylsulfanyl)-2-(4-methyl-pyrimidin-2-ylsulfanylmethyl)-5-oxo-2,5-dihydro-furan-2-carboxylic acid ethyl ester]	≤ 20 µM	–
CCOC(=O)C1(CSc2ncccn2)OC(=O)C(O)=C1Sc1ncccn1 (stereo not drawn) [4-Hydroxy-5-oxo-3-(pyrimidin-2-ylsulfanyl)-2-(pyrimidin-2-ylsulfanylmethyl)-2,5-dihydro-furan-2-carboxylic acid ethyl ester]	≤ 20 µM	–
